Active and inactive are the calls of the source. No cut-off for these calls is given here. Where a SMILES comes first, the peptide text is derived from it.
Key:
[1] = biological target: Frizzled-1 (Rattus norvegicus) (UniProt Q08463); experiment: Antagonist activity at Wnt3a-stimulated rat frizzled-1 expressed in African green monkey COS7 cells up to 10 uM incubated for 24 hrs by luciferase reporter gene assay; format: cell-based; details: dose microM <=10, time 24.0 hrs
[2] = biological target: Frizzled-2 (Homo sapiens) (UniProt Q14332); experiment: Antagonist activity at Wnt3a-stimulaed frizzled-2 (unknown origin) expressed in human HEK293superTOP flash cells at 1 nM incubated for 24 hrs by luciferase reporter gene assay (reference value: 0%); format: functional, cell-based
Frizzled-2 (Homo sapiens), sequence (Q14332 24-565 limits assumed): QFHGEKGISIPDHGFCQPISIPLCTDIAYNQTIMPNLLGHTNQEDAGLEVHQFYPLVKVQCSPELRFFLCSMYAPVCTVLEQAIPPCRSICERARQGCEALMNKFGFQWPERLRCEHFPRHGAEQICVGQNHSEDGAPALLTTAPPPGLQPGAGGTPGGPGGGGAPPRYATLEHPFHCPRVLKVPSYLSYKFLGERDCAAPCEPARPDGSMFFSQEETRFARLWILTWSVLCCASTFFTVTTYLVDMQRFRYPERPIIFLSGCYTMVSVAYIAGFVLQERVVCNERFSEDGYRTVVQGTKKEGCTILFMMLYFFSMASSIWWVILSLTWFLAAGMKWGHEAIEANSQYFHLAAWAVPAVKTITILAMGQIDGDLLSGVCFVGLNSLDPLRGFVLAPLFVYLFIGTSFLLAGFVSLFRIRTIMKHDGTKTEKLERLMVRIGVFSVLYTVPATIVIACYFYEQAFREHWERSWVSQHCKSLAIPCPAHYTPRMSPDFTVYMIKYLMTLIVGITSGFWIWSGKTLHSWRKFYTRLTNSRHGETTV

[3] = biological target: Frizzled-1 (Homo sapiens) (UniProt Q9UP38); experiment: Antagonist activity at Wnt3a-stimulaed frizzled-1 (unknown origin) expressed in human HEK293superTOP flash cells at 1 nM incubated for 24 hrs by luciferase reporter gene assay (reference value: 0%); format: functional, cell-based
Frizzled-1 (Homo sapiens), sequence (Q9UP38 70-647 limits assumed): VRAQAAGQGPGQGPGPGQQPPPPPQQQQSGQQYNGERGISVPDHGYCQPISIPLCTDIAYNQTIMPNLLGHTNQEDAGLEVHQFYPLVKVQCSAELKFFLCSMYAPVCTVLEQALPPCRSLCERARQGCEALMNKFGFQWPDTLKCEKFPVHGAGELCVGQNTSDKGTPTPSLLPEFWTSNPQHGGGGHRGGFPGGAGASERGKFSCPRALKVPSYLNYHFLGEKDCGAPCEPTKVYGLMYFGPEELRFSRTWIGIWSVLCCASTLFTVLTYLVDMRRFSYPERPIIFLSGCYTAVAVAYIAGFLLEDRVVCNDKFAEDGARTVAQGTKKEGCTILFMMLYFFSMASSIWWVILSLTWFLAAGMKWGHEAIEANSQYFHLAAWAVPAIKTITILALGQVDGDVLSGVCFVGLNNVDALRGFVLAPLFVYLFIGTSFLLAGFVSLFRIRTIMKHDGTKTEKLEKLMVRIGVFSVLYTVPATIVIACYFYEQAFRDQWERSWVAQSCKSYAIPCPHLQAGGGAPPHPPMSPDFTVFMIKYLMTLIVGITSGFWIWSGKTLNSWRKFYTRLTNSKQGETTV

[4] = biological target: Frizzled-1 (Homo sapiens) (UniProt Q9UP38); experiment: Antagonist activity at Wnt3a-stimulated frizzled-1 (unknown origin) expressed in human HEK293superTOP flash cells at 10 nM incubated for 24 hrs by luciferase reporter gene assay; format: functional, cell-based; details: HEK293
[5] = biological target: Frizzled-1 (Rattus norvegicus) (UniProt Q08463); experiment: Antagonist activity at Wnt3a-stimulated rat frizzled-1 expressed in CHO cells up to 10 uM incubated for 24 hrs by luciferase reporter gene assay; format: cell-based; details: dose microM <=10, time 24.0 hrs
[6] = biological target: Frizzled-2 (Homo sapiens) (UniProt Q14332); experiment: Antagonist activity at Wnt3a-stimulated frizzled-2 (unknown origin) expressed in human HEK293superTOP flash cells at 10 nM incubated for 24 hrs by luciferase reporter gene assay; format: functional, cell-based; details: HEK293
[7] = biological target: Frizzled-2 (Rattus norvegicus) (UniProt Q08464); experiment: Antagonist activity at Wnt3a-stimulated rat frizzled-2 expressed in […] cells up to 10 uM incubated for 24 hrs by luciferase reporter gene assay; format: cell-based; details: dose microM <=10, time 24.0 hrs
Frizzled-2 (Rattus norvegicus), sequence (Q08464 29-570 limits assumed): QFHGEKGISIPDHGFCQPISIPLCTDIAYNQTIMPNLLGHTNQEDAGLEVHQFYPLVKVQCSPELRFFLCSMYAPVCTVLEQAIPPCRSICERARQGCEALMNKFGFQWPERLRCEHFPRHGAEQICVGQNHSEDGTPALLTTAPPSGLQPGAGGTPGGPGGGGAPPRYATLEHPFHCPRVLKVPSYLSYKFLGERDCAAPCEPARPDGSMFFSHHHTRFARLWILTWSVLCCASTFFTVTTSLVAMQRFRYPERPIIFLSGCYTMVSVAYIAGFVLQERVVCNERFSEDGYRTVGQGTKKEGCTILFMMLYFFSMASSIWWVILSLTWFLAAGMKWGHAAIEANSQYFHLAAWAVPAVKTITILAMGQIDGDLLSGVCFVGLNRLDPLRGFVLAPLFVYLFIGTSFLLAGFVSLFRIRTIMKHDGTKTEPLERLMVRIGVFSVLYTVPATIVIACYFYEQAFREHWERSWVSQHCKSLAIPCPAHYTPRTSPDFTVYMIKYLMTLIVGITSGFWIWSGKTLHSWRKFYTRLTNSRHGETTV

[8] = biological target: Frizzled-2 (Rattus norvegicus) (UniProt Q08464); experiment: Antagonist activity at Wnt3a-stimulated rat frizzled-2 expressed in African green monkey COS7 cells up to 10 uM incubated for 24 hrs by luciferase reporter gene assay; format: cell-based; details: dose microM <=10, time 24.0 hrs

Frizzled-1 (Rattus norvegicus), sequence (Q08463 whole entry): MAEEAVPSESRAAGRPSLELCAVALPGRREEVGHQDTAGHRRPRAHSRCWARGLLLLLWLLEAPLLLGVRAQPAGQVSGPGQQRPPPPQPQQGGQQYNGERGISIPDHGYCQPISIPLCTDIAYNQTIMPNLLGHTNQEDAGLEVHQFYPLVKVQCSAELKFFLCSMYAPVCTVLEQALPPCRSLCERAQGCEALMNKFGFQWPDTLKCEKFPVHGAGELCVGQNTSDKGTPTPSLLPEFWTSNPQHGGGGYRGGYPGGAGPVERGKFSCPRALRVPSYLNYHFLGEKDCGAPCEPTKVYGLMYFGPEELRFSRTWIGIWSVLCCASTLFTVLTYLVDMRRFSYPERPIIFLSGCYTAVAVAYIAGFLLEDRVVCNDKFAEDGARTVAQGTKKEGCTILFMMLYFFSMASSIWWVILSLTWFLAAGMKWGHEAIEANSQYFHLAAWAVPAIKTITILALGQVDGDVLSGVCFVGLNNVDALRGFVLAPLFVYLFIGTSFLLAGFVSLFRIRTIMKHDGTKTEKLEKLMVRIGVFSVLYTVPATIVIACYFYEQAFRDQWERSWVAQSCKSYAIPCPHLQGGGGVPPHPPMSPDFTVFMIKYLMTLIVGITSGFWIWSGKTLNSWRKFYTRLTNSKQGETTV

| inhibition [1] | inhibition ([2]; HEK293, filed as antagonist) [%] | inhibition ([3]; HEK293, filed as antagonist) [%] | inhibition [4] | inhibition [5] | inhibition [6] | inhibition [7] | inhibition [8] | inhibition ([2]; HEK293) [%] | inhibition ([3]; HEK293) [%] | Molecule |
| --- | --- | --- | --- | --- | --- | --- | --- | --- | --- | --- |
| inactive | 79.5 | 68 | inactive | inactive | inactive | inactive | inactive |  |  | CSCC[C@H](NC(=O)CNC(=O)[C@H](CCC(=O)O)NC(=O)[C@H](CO)NC(=O)[C@@H](NC(=O)[C@H](CCCCN)NC(=O)[C@H](C)NC(=O)[C@H](CS)NC(C)=O)[C@@H](C)O)C(=O)N[C@@H](CC(=O)O)C(=O)NCC(=O)N[C@@H](CS)C(=O)N[C@@H](CCC(=O)O)C(=O)N[C@@H](CC(C)C)C(N)=O (Ac-CAKTSEGMDGCEL-NH2) |
| inactive | 84.9 | 70.8 | inactive | inactive | inactive | inactive | inactive |  |  | CSCC[C@H](NC(=O)CNC(=O)[C@H](CCC(=O)O)NC(=O)[C@H](CO)NC(=O)[C@@H](NC(=O)[C@H](C)NC(=O)[C@H](CC(N)=O)NC(=O)[C@H](CS)NC(C)=O)[C@@H](C)O)C(=O)N[C@@H](CC(=O)O)C(=O)NCC(=O)N[C@@H](CS)C(=O)N[C@@H](CCC(=O)O)C(=O)N[C@@H](CC(C)C)C(N)=O (Ac-CNATSEGMDGCEL-NH2) |
| inactive |  |  | inactive | inactive | inactive | inactive | inactive | 17.5 | 11.2 | CSCC[C@H](NC(=O)[C@H](C)NC(=O)[C@H](CCC(=O)O)NC(=O)[C@H](CO)NC(=O)[C@H](C)NC(=O)[C@H](CCCCN)NC(=O)[C@H](CC(N)=O)NC(=O)[C@H](CS)NC(C)=O)C(=O)N[C@@H](C)C(=O)NCC(=O)N[C@@H](CS)C(=O)N[C@@H](CCC(=O)O)C(=O)N[C@@H](CC(C)C)C(N)=O (Ac-CNKASEAMAGCEL-NH2) |
| inactive | 59.4 |  | inactive | inactive | inactive | inactive | inactive |  | 28.1 | CSCC[C@H](NC(=O)CNC(=O)[C@H](CCC(=O)O)NC(=O)[C@H](CO)NC(=O)[C@H](C)NC(=O)[C@H](CCCCN)NC(=O)[C@H](CC(N)=O)NC(=O)[C@H](CS)NC(C)=O)C(=O)N[C@@H](CC(=O)O)C(=O)NCC(=O)N[C@@H](CS)C(=O)N[C@@H](CCC(=O)O)C(=O)N[C@@H](CC(C)C)C(N)=O (Ac-CNKASEGMDGCEL-NH2) |
| inactive | 87.3 | 74.3 | inactive | inactive | inactive | inactive | inactive |  |  | CSCC[C@H](NC(=O)CNC(=O)[C@H](CCC(=O)O)NC(=O)[C@H](C)NC(=O)[C@@H](NC(=O)[C@H](CCCCN)NC(=O)[C@H](CC(N)=O)NC(=O)[C@H](CS)NC(C)=O)[C@@H](C)O)C(=O)N[C@@H](CC(=O)O)C(=O)NCC(=O)N[C@@H](CS)C(=O)N[C@@H](CCC(=O)O)C(=O)N[C@@H](CC(C)C)C(N)=O (Ac-CNKTAEGMDGCEL-NH2) |
| inactive | 84.7 | 70.8 | inactive | inactive | inactive | inactive | inactive |  |  | CSCC[C@H](NC(=O)CNC(=O)[C@H](C)NC(=O)[C@H](CO)NC(=O)[C@@H](NC(=O)[C@H](CCCCN)NC(=O)[C@H](CC(N)=O)NC(=O)[C@H](CS)NC(C)=O)[C@@H](C)O)C(=O)N[C@@H](CC(=O)O)C(=O)NCC(=O)N[C@@H](CS)C(=O)N[C@@H](CCC(=O)O)C(=O)N[C@@H](CC(C)C)C(N)=O (Ac-CNKTSAGMDGCEL-NH2) |
| inactive | 63.1 | 52.6 | inactive | inactive | inactive | inactive | inactive |  |  | CSCC[C@H](NC(=O)[C@H](C)NC(=O)[C@H](CCC(=O)O)NC(=O)[C@H](CO)NC(=O)[C@@H](NC(=O)[C@H](CCCCN)NC(=O)[C@H](CC(N)=O)NC(=O)[C@H](CS)NC(C)=O)[C@@H](C)O)C(=O)N[C@@H](CC(=O)O)C(=O)NCC(=O)N[C@@H](CS)C(=O)N[C@@H](CCC(=O)O)C(=O)N[C@@H](CC(C)C)C(N)=O (Ac-CNKTSEAMDGCEL-NH2) |
| inactive | 85 | 67.6 | inactive | inactive | inactive | inactive | inactive |  |  | CC(=O)N[C@@H](CS)C(=O)N[C@@H](CC(N)=O)C(=O)N[C@@H](CCCCN)C(=O)N[C@H](C(=O)N[C@@H](CO)C(=O)N[C@@H](CCC(=O)O)C(=O)NCC(=O)N[C@@H](C)C(=O)N[C@@H](CC(=O)O)C(=O)NCC(=O)N[C@@H](CS)C(=O)N[C@@H](CCC(=O)O)C(=O)N[C@@H](CC(C)C)C(N)=O)[C@@H](C)O (Ac-CNKTSEGADGCEL-NH2) |
| inactive | 60.5 | 40.5 | inactive | inactive | inactive | inactive | inactive |  |  | CSCC[C@H](NC(=O)CNC(=O)[C@H](CCC(=O)O)NC(=O)[C@H](CO)NC(=O)[C@@H](NC(=O)[C@H](CCCCN)NC(=O)[C@H](CC(N)=O)NC(=O)[C@H](CS)NC(C)=O)[C@@H](C)O)C(=O)N[C@@H](C)C(=O)NCC(=O)N[C@@H](CS)C(=O)N[C@@H](CCC(=O)O)C(=O)N[C@@H](CC(C)C)C(N)=O (Ac-CNKTSEGMAGCEL-NH2) |
| inactive | 83.3 | 69.9 | inactive | inactive | inactive | inactive | inactive |  |  | CSCC[C@H](NC(=O)CNC(=O)[C@H](CCC(=O)O)NC(=O)[C@H](CO)NC(=O)[C@@H](NC(=O)[C@H](CCCCN)NC(=O)[C@H](CC(N)=O)NC(=O)[C@H](CS)NC(C)=O)[C@@H](C)O)C(=O)N[C@@H](CC(=O)O)C(=O)N[C@@H](C)C(=O)N[C@@H](CS)C(=O)N[C@@H](CCC(=O)O)C(=O)N[C@@H](CC(C)C)C(N)=O (Ac-CNKTSEGMDACEL-NH2) |
| inactive | 74.3 | 66.8 | inactive | inactive | inactive | inactive | inactive |  |  | CSCC[C@H](NC(=O)CNC(=O)[C@H](CCC(=O)O)NC(=O)[C@H](CO)NC(=O)[C@@H](NC(=O)[C@H](CCCCN)NC(=O)[C@H](CC(N)=O)NC(=O)[C@H](CS)NC(C)=O)[C@@H](C)O)C(=O)N[C@@H](CC(=O)O)C(=O)NCC(=O)N[C@@H](CS)C(=O)N[C@@H](C)C(=O)N[C@@H](C)C(N)=O (Ac-CNKTSEGMDGCAA-NH2) |
| inactive | 85.5 | 65.9 | inactive | inactive | inactive | inactive | inactive |  |  | CSCC[C@H](NC(=O)CNC(=O)[C@H](CCC(=O)O)NC(=O)[C@H](CO)NC(=O)[C@@H](NC(=O)[C@H](CCCCN)NC(=O)[C@H](CC(N)=O)NC(=O)[C@H](CS)NC(C)=O)[C@@H](C)O)C(=O)N[C@@H](CC(=O)O)C(=O)NCC(=O)N[C@@H](CS)C(=O)N[C@@H](C)C(=O)N[C@@H](CC(C)C)C(N)=O (Ac-CNKTSEGMDGCAL-NH2) |
| inactive | 86.5 | 65.9 | inactive | inactive | inactive | inactive | inactive |  |  | CSCC[C@H](NC(=O)CNC(=O)[C@H](CCC(=O)O)NC(=O)[C@H](CO)NC(=O)[C@@H](NC(=O)[C@H](CCCCN)NC(=O)[C@H](CC(N)=O)NC(=O)[C@H](CS)NC(C)=O)[C@@H](C)O)C(=O)N[C@@H](CC(=O)O)C(=O)NCC(=O)N[C@@H](CS)C(=O)N[C@@H](CCC(=O)O)C(=O)N[C@@H](C)C(N)=O (Ac-CNKTSEGMDGCEA-NH2) |
| inactive | 62.4 | 45.3 | inactive | inactive | inactive | inactive | inactive |  |  | CC[C@H](C)[C@H](NC(=O)CNC(=O)[C@H](Cc1cnc[nH]1)NC(=O)[C@H](CO)NC(=O)[C@H](CO)NC(=O)[C@@H](NC(=O)[C@H](CC(N)=O)NC(=O)[C@@H](N)CS)C(C)C)C(=O)N[C@@H](CC(=O)O)C(=O)NCC(=O)N[C@@H](CS)C(=O)N[C@@H](CC(=O)O)C(=O)N[C@@H](CC(C)C)C(=O)O (H-CNVSSHGIDGCDL-OH) |
| inactive | 82.6 | 70.8 | inactive | inactive | inactive | inactive | inactive |  |  | Ac-ANKTSEGMDGCEL-NH2 |
